Here are results for 2 molecules from patent US20230285347A1, “Preterm Labour with Prostaglandin E2 Receptor Agonists” (IMPERIAL COLLEGE INNOVATIONS LIMITED, priority 2020, published 2023).

Molecules are shown by their SMILES.

What all share (assay type): cell-based
The target of assay [1] is T1, EP2 (Homo sapiens, UniProt P43116).
T1 construct: primary human myocytes cultured from term pregnant, non-labouring, myometrium; endogenous in cells; host or cells: primary human myometrial cells (myocytes) cultured from pregnant myometrium
T1 sequence (P43116 whole entry): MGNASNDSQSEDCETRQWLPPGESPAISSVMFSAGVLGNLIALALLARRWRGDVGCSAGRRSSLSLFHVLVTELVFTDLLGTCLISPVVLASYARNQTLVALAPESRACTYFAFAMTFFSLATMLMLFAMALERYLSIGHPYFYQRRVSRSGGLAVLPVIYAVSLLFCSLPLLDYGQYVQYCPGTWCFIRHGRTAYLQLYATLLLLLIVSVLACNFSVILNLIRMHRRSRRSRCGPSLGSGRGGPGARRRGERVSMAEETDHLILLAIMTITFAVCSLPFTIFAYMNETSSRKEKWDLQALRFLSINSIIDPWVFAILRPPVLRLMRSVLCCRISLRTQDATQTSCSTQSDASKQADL
Description: Intracellular cAMP in primary human myocytes from term pregnant non-labouring myometrium. The settings on record: butaprost 10 μM, AH13205 10 μM, PGN9856i 100 nM, FIG. 5. How it is done:
In the myometrium EP2 is an important regulator of parturition. To assess if PGN9856i, butaprost and AH13205 induce similar second messenger profiles in the myometrium as HEK 293 cells, primary human myocytes cultured from term pregnant, non-labouring, myometrium, were treated with each ligand and intracellular cAMP, calcium and PGE2 release was measured.
(§1) Myometrial tissue was acquired at St. Mary's hospital, Queen Charlotte and Chelsea hospital and Charing Cross hospital, London. Tissue was obtained from women provided with informed written consent with the approval from the Riverside Research Ethics Committee (RREC 3357, 1997-5089, 19/LO/1657) and experiments were carried out under the committee's guidelines and recommendations. Tissues were obtained from term (38+0-40 weeks gestation) pregnant women undergoing elective caesarean from the upper margin of the incision made at the lower segment of the uterus, before or after the onset of labor. Tissues taken from women in early labour (<3 cm cervical dilation) or late labour (>3 cm cervical dilation) with/without induction with syntocinon, an oxytocin analogue. Tissue was only taken from uncomplicated, singleton pregnancies.
(§2) Tissue was stored at 4° C. in phosphate buffered saline until fine dissection with scalpels and dissociation at 37° C. for 1 hour in a sterile-filtered mix of Dulbecco's modified Eagle's medium (DMEM) (Sigma Aldrich)/Ham's F-12 Nutrient Mixture (Sigma Aldrich) and serum-free DMEM (Sigma Aldrich) (1:1 v/v) containing collagenase 1A (Sigma Aldrich)(1 mg/ml), collagenase X (Sigma Aldrich)(1 mg/ml) and bovine serum albumin (Sigma Aldrich) (2 mg/ml). […]
Confluent myometrial cells were treated with/without OT (100 nM) for 1 hour before 3 PBS washes and the addition of […] IBMX (3-isobutyl-1-methylxanthine) in PBS for 5 minutes at 37° C. […] Lysates were normalized to protein concentration determined by Coomassie (Bradford) Protein Assay Kit and analysed as per manufacturers' protocol (Cisbio Gαs dynamic assay) using a PHERAstar FSX.

Assay [2] addresses T2, human FLAG-tagged EP2 (Homo sapiens, UniProt P43116).
T2 construct: FLAG; expressed in transfected cells
Kind of assay: cAMP induction in HEK 293 cells stably expressing EP2 (Gαs readout). The settings on record: for cAMP efficacy at the maximal dose of each ligand: HEK 293 EP2 cells, 5 minutes of stimulation, no significant difference between ligands, FIG. 2. How it is done: EP2 is a dually coupled GPCR capable of activating downstream signalling pathways via Gαs (anti-labour inducing) and Gαq/11 (pro-labour inducing).
HEK 293 cells were maintained in DMEM (Dulbecco's Modified Eagle Medium) containing 10% fetal bovine serum and 100 μ/ml penicillin-streptomycin, and cultured in 75 cm flasks at 37° C. in 95% air and 5% CO2. Cells at 95% confluency were passaged using 0.25% trypsin with 0.02% EDTA in phosphate-buffered saline (PBS).
(§3) Confluent myometrial cells were treated with/without OT (100 nM) for 1 hour before 3 PBS washes and the addition of […] IBMX (3-isobutyl-1-methylxanthine) in PBS for 5 minutes at 37° C. This was exchanged for 0.5 μM IBMX in PBS plus either DMSO, butaprost (10 μM), AH13205 (10 μM) or PGN9856i (100 nM) for […]. Cells were lysed in Cisbio cAMP lysis buffer with 0.2% TritonX-100 and centrifuged for 15 minutes at 16,000 g. Lysates were normalized to protein concentration determined by Coomassie (Bradford) Protein Assay Kit and analysed as per manufacturers' protocol (Cisbio Gαs dynamic assay) using a PHERAstar FSX.

For assay [3], the target named is T1, EP2. Description: cAMP in non-labouring myometrial cells with/without oxytocin pre-treatment. Conditions: OT pre-treatment 1 hour, 100 nM; butaprost 10 μM, AH13205 10 μM, PGN9856i 100 nM; FIG. 10. How it is done: Myometrial cells with/without oxytocin (OT) pre-treatment (1 hour, 100 nM) were treated with IBMX (5 minutes, 0.5 mM) before 1 minute stimulation with IBMX with/without either DMSO, butaprost (10 μM), AH13205 (10 μM) or PGN9856i (100 nM). cAMP concentrations were normalised to protein. Each patient's data normalised to butaprost response and shown as mean±SEM, n=6. One-sample t-test: #p<0.05. ##p<0.01. One-way ANOVA with Sidak's multiple comparison post-hoc test: **p<0.01.
as §3

Assay [4] addresses T1, EP2. Kind of assay: cAMP signalling in myometrial cells from different labouring groups, EP2 agonist. The settings on record: butaprost 10 μM, FIG. 8. How it is done: L=non-labouring, L+E=early stage spontaneous labour, L+L=late stage spontaneous labour, L+SE=early stage induced labour, L+SL=late stage induced labour. Myometrial cells from different labouring groups were treated with IBMX (5 minutes, 0.5 mM) before 1 minute stimulation with IBMX with/without butaprost (10 μM) or isoproterenol (10 μM). cAMP concentrations were normalised to protein. Data shown as mean±SEM, L−n=4. All other groups n=5. Each treatment compared to L− using one-way ANOVA with Dunnett's multiple comparison post-hoc test: **p<0.01, ***p<0.001, ****p<0.0001.
as §1
as §2, with “mg/ml). Dissociation was ended using DMEM 10% fetal bovine serum (Sigma Aldrich) and cell suspension was obtained using a 40-μm cell strainer before centrifugation at 3000 rpm for 5 minutes.” for “mg/ml).”

T2 sequence (P43116 whole entry): as above

As to `CC(C)OC(=O)COc1cccc(NC(=O)c2cc(-c3cccc(F)c3)ccc2F)c1` [PGN9856i, propan-2-yl 2-(3-{3′,4-difluoro-[1,1′-biphenyl]-3-amido}phenoxy)acetate], the “release of intracellular cAMP” value in assay [1] is on record as “able to elicit release of intracellular cAMP”. Besides, in assay [2], the “cAMP efficacy at the maximal dose of each ligand” value is listed as “equally efficacious”. Besides, in assay [2] (HEK 293 cells stably expressing human FLAG-tagged EP2, dose-response curves, FIG. 1), the “EC50 for EP2 agonist-mediated induction of cAMP (relative potency)” value is “greatest potency, by three orders of magnitude”. The “effect of OTR activation on ligand's ability to increase intracellular cAMP” value in assay [3] is “significantly reduced”.

`CCCC1([C@H](O)C/C=C/[C@H]2[C@H](O)CC(=O)[C@@H]2CCCCCCC(=O)OC)CCC1` [butaprost]: the “release of intracellular cAMP” value in assay [1] is given as “able to elicit release of intracellular cAMP”. Besides, the “cAMP efficacy at the maximal dose of each ligand” value in assay [2] is “equally efficacious”. For the same molecule, in assay [3], the “effect of OTR activation on ligand's ability to increase intracellular cAMP” value is given as “significantly reduced”. Besides, in assay [4] (all labouring groups), the “agonist-induced cAMP signalling in labouring groups vs non-labouring” value was “significantly attenuated in all labouring groups”. The “reduction of agonist-stimulated cAMP, non-labouring vs spontaneous early labour” value in assay [4] (spontaneous early labour samples) came out at 2.5 fold. Further, the “reduction of agonist-stimulated cAMP, non-labouring vs spontaneous late labour” value in assay [4] (spontaneous late labour samples) is on record as 10 fold.
